Like-named read-outs stand apart in the source and are kept apart here.
What was measured:
[1] = system: SW620; test: MTT cytotoxicity assay; format: cell-based, human; conditions: for IC50: MTT, 72 h, human metastatic colon cancer; for SI SW620: SI = IC50 for normal cell line (HaCaT)/IC50 cancer cell line
Experimental: (§1) The human primary (SW480) and metastatic (SW620) colon cancer, metastatic prostate cancer (PC3), breast adenocarcinoma (MDA-MB-231) and human immortal keratinocyte (HaCaT) cell lines were recruited from the American Type Culture Collection (ATCC). The cells were cultured in the recommended medium according to protocols (RPMI 1640 for PC3, MEM for SW480 and SW620, as well as DMEM for MDA-MB-231 and HaCaT cells) with addition of 10% FBS, penicillin (100 U/mL), and streptomycin (100 μg/mL) and cultured in 37 °C/5% CO2 in a humidified incubator. Then, the cells were passaged at a confluence of 80–90% by a treatment with 0.25% trypsin (Gibco Life Technologies) and used for studies.
(§2) They were added to 96-well plates with seeded normal and cancer cells (1 × 10^4 cells per well) and incubated for 72 h. MTT analysis was performed according to a previous study.

[2] = system: SW480; test: MTT cytotoxicity assay; format: cell-based, human; conditions: for IC50: MTT, 72 h, human primary colon cancer; for SI SW480: SI = IC50 for normal cell line (HaCaT)/IC50 cancer cell line
Experimental: as §1, §2

[3] = system: MDA-MB-231; test: MTT cytotoxicity assay; format: cell-based, human; conditions: for IC50: MTT, 72 h, human breast adenocarcinoma; for SI MDA-MB-231: SI = IC50 for normal cell line (HaCaT)/IC50 cancer cell line
Experimental: as §1, §2

[4] = system: Danio rerio larvae; test: In vivo toxicity, maximum tolerated concentration; conditions: zebrafish larvae, immersion from 96 hpf for 18 h (120 hpf), 5-150 μM tested
Experimental: Zebrafish (Danio rerio, strain AB) was maintained at the Experimental Medicine Center, Medical University of Lublin, Poland. Embryos and larvae up to 120 h postfertilization (hpf) were kept under generally accepted environmental conditions, i.e., in incubators at 28.5 °C, with 14/10 h light/dark cycles. The embryos of the Zebrafish were harvested after the natural reproduction process.
Three compounds showing low IC50 values determined on cancer lines in in vitro tests (2b, 4a) and compound 1a characterized by low cytotoxicity were used for in vivo tests. We also conducted research for coumarin. These compounds were dissolved in dimethyl sulfoxide (DMSO) (Sigma-Aldrich, St. Louis, MO, USA) and diluted in the zebrafish medium (pH 7.1–7.3; 5.0 mM NaCl, 0.17 mM KCl, 0.33 mM CaCl2, 0.33 mM MgSO4) to achieve a final DMSO concentration of 1% w/v. Twenty-four hpf zebrafish embryos were investigated under a light microscope, and […] fertilized embryos (n = 60) were selected and transferred into 48-well plates (5 embryos per well). Larvae were incubated in 1 mL of the zebrafish medium for up to 3 days after fertilization.
On the fourth day postfertilization (96 hpf), the larvae (10 individuals per group) were incubated in solutions of coumarin or its three derivatives (1a, 2b, 4a) at selected concentrations (5, 10, 25, 50, 75, 100, 150 μM), along with control solutions: negative control (zebrafish medium) and solvent control (1% DMSO in zebrafish medium). The maximum tolerated concentration (MTC) was calculated to assess the toxicity of the compounds and extracts. […] Larvae were individually inspected under a microscope for signs of acute locomotor dysfunction, including a weak reaction to light tail stimulation with a fine needle, disrupted posture, body deformities, protruding eyes, slowed or absent heartbeat, and mortality.

[5] = system: HaCaT; test: MTT cytotoxicity assay, normal cells; format: cell-based; conditions: 72 h, human immortal keratinocytes (normal cells)
Experimental: as §1, §2

[6] = system: PC3; test: MTT cytotoxicity assay; format: cell-based, human; conditions: for IC50: MTT, 72 h, human metastatic prostate cancer; for SI PC3: SI = IC50 for normal cell line (HaCaT)/IC50 cancer cell line
Experimental: as §1, §2

[7] = system: tested cancer cell lines (SW480, SW620, PC3, MDA-MB-231); test: MTT assay, mean over tested cancer cell lines; format: cell-based; conditions: Homo sapiens, mean of the four cancer cell lines
Experimental: They were added to 96-well plates with seeded normal and cancer cells (1 × 10^4 cells per well) and incubated for 72 h. MTT analysis was performed according to a previous study. […]

[8] = Table S7, >100 entered as 100, read-out: mean anticancer IC50
[9] = read-out: average IC50 against tested cancer cell lines

| SMILES | IC50 [1] | IC50 [2] | IC50 [3] | maximum tolerated concentration (MTC) [4] | IC50 ([5]; HaCaT) | SI SW620 [1] | IC50 ([1]; SW-620) | IC50 ([6]; PC-3) | SI PC3 [6] | SI SW480 [2] | IC50 ([2]; SW480) | IC50 ([3]; MDA-MB-231) | SI MDA-MB-231 [3] | IC50 [7, 8] | IC50 [7, 9] | IC50 [5] | IC50 [6] |
| --- | --- | --- | --- | --- | --- | --- | --- | --- | --- | --- | --- | --- | --- | --- | --- | --- | --- |
| N.N.[Cl][Pt][Cl] [Cisplatin, reference compound] | 6.7 ± 1.1 µM | 10.4 ± 0.9 µM | 7.3 ± 0.8 µM |  |  |  |  |  |  |  |  |  |  |  |  |  |  |
| CC(C)[C@@H]1CC[C@@H](C)C[C@H]1OC(=O)c1cc2ccccc2oc1=O [Compound 1a, (1R,2S,5R)-2-Isopropyl-5-methylcyclohexyl 2-oxo-2H-chromene-3-carboxylate] |  |  |  | 0 µM | 82.7 ± 3.5 µM | 1.44 | 57.3 ± 5.36 µM | 57.8 ± 3.87 µM | 1.43 | 1.17 | 70.5 ± 2.31 µM | 76.5 ± 8.85 µM | 1.08 | 65.5 µM | 65.5 µM |  |  |
| CC(C)[C@H]1CC[C@H](C)C[C@@H]1OC(=O)c1cc2ccccc2oc1=O [Compound 1b, (1S,2R,5S)-2-Isopropyl-5-methylcyclohexyl 2-oxo-2H-chromene-3-carboxylate] |  |  |  |  | 41.1 ± 2.8 µM | 0.41 | > 100 µM | > 100 µM | 0.41 | 0.41 | > 100 µM | > 100 µM | 0.41 | > 100 µM |  |  |  |
| COc1ccc2cc(C(=O)O[C@@H]3C[C@H](C)CC[C@H]3C(C)C)c(=O)oc2c1 [Compound 1c, (1R,2S,5R)-2-Isopropyl-5-methylcyclohexyl 7-methoxy-2-oxo-2H-chromene-3-carboxylate] |  |  |  |  | 15.3 ± 4.41 µM | 0.15 | > 100 µM | > 100 µM | 0.15 | 0.15 | > 100 µM | > 100 µM | 0.15 | > 100 µM |  |  |  |
| COc1cccc2cc(C(=O)O[C@@H]3C[C@H](C)CC[C@H]3C(C)C)c(=O)oc12 [Compound 1d, (1R,2S,5R)-2-Isopropyl-5-methylcyclohexyl 8-Methoxy-2-oxo-2H-chromene-3-carboxylate] |  |  |  |  | > 100 µM | 1 | > 100 µM | 29.3 ± 2.05 µM | 3.41 | 3.93 | 25.4 ± 6.12 µM | 36.6 ± 7.74 µM | 2.73 | > 47.8 µM | > 47.8 µM |  |  |
| CC(C)[C@@H]1CC[C@@H](C)C[C@H]1OC(=O)c1cc2ccc(O)cc2oc1=O [Compound 1e, (1R,2S,5R)-2-Isopropyl-5-methylcyclohexyl 7-hydroxy-2-oxo-2H-chromene-3-carboxylate] |  |  |  |  | 78.8 ± 7.12 µM | 2.03 | 38.7 ± 0.01 µM | 21.8 ± 4.21 µM | 3.61 | 2.84 | 27.7 ± 2.42 µM | 86.7 ± 2.24 µM | 0.91 | 43.7 µM | 43.7 µM |  |  |
| O=C(OC1CCCCC1)c1cc2ccccc2oc1=O [Compound 1f, Cyclohexyl 2-Oxo-2H-chromene-3-carboxylate] |  |  |  |  | > 100 µM | 1 | > 100 µM | > 100 µM | 1 | 1 | > 100 µM | > 100 µM | 1 | > 100 µM |  |  |  |
| CCOP(=O)(OCC)c1cc2ccccc2oc1=O [Compound 2a, Diethyl (2-Oxo-2H-chromen-3-yl)phosphonate] | > 100 µM | > 100 µM | > 100 µM |  |  | 1 |  |  | 1 | 1 |  |  | 1 |  |  | > 100 µM | > 100 µM |
| COc1cccc2cc(P(=O)(c3ccccc3)c3ccccc3)c(=O)oc12 [Compound 3, 3-(Diphenylphosphinyl)-8-methoxy-2H-chromen-2-one] |  |  |  |  | > 100 µM | 1 | > 100 µM | > 100 µM | 1 | 1 | > 100 µM | > 100 µM | 1 | > 100 µM |  |  |  |
| CCOC(=O)C1C(=O)Oc2ccccc2C1P(=O)(c1ccccc1)c1ccccc1 (stereo not drawn) [Compound 4c, Ethyl 4-(Diphenylphosphoryl)-2-oxochroman-3-carboxylate] |  |  |  |  | > 100 µM | 1 | > 100 µM | > 100 µM | 1 | 1 | > 100 µM | > 100 µM | 1 | > 100 µM |  |  |  |
| CCOC(=O)C1C(=O)Oc2ccccc2C1P(=O)(OCC)OCC (stereo not drawn) [Compound 4d, Ethyl 4-(diethoxyphosphoryl)-2-oxochroman-3-carboxylate] |  |  |  |  | > 100 µM | 1 | > 100 µM | > 100 µM | 1 | 1 | > 100 µM | > 100 µM | 1 | > 100 µM |  |  |  |
| CCOP(=O)(OCC)C1C(=O)Oc2ccccc2C1P(=O)(c1ccccc1)c1ccccc1 (stereo not drawn) [Compound 5a, Diethyl (4-(Diphenylphosphoryl)-2-oxochroman-3-yl)phosphonate] |  |  |  |  | > 100 µM | 1 | > 100 µM | > 100 µM | 1 | 1 | > 100 µM | > 100 µM | 1 | > 100 µM |  |  |  |
| CCOP(=O)(OCC)C1C(=O)Oc2c(OC)cccc2C1P(=O)(c1ccccc1)c1ccccc1 (stereo not drawn) [Compound 5b, Diethyl (4-(Diphenylphosphoryl)-8-methoxy-2-oxochroman-3-yl)phosphonate] |  |  |  |  | > 100 µM | 1 | > 100 µM | > 100 µM | 1 | 1 | > 100 µM | > 100 µM | 1 | > 100 µM |  |  |  |
| COc1cccc2c1C(=O)c1c(O)c3c(c(O)c1C2=O)C[C@@](O)(C(=O)CO)C[C@@H]3O[C@H]1C[C@H](N)[C@H](O)[C@H](C)O1 [Doxorubicin, reference compound] |  |  |  |  | 0.3 ± 0.1 µM | 1.0 | 0.3 ± 0.1 µM | 0.3 ± 0.1 µM | 1.0 | 0.4 | 0.7 ± 0.1 µM | 1.6 ± 0.2 µM |  |  |  |  |  |
| O=c1ccc2ccccc2o1 [coumarin, 2H-chromen-2-one] |  |  |  | 100 µM |  |  |  |  |  |  |  |  |  |  |  |  |  |
